# Measured values from patent US20240425571A1, “GLYCOPROTEIN A REPETITIONS PREDOMINANT (GARP)-BINDING ANTIBODIES AND USES THEREOF” (OHIO STATE INNOVATION FOUNDATION, priority 2021, published 2024).
# Columns and labels:
# B16-F1 melanomas = assay: B16-F1 melanoma, adoptive T cell therapy with anti-platelet agents; format: in vivo, mouse; conditions: for anti-tumor effect: aspirin and clopidogrel added to Cy, no T cells; for antigen-specific T cells in blood, ILNs and spleens: aspirin and clopidogrel concurrent with ACT; for efficacy and relapse-free survival: aspirin and clopidogrel plus Cy and adoptive Pmel T cell transfer
# [1] = tested on: MB-49 Bladder Cancer cells; assay: MB-49 bladder cancer model in hLRRC32KI mice; conditions: FTY720 2 mg/kg every two days, 6 doses, with PIIO-1
# Protocol: A. 1×10^5 MB-49 Bladder Cancer cells were injected s.c. on the right flank of hLRRC32KI mice. […] Representative tumor curve. B. 1×10^5 MB-49 Bladder cancer cells were injected s.c. on the right flank of hLRRC32KI mice. […] Tumors were collected and perform flow cytometry on day 10. Frequency of CD8+ T cells as a proportion of live CD45+ lymphocytes (left). 1×10^5 MB-49 Bladder Cancer cells were injected s.c. on the right flank of hLRRC32KI mice. […] Tumors were collected and perform flow cytometry on day 22. […] C. Frequency of CD25+Foxp3^+ Tregs in CD4+ tumor-infiltrating T cells (left). […] UMAP dimension reduction of tumor-infiltrating CD8+ T cells from B after staining with 33 markers and spectral flow cytometry analysis. Shown is the data gated on live CD45+CD3+CD8+ T cells, subsampled on 5000 cells per sample Unsupervised clustering analysis was done using FlowSOM algorithm with an elbow method approach for cluster number determination. E. Heatmap of D showing expression levels of indicated markers by each cluster. […] Cluster differences were measured by two-tailed Student's t test.
# A. Experimental scheme. […] Overall survival is analyzed by log-rank (Mantel-Cox) test. […]
# A. 1×10^5 MB-49 Bladder Cancer cells were injected s.c. in the right flank of hLRRC32KI mice. […] B. Quantification of panel A. 1×10^5 MB-49 Bladder Cancer cells were injected s.c. on the right flank of hLRRC32KI mice. […]
# [2] = tested on: platinum resistant advanced NSCLC; assay: POPLAR database analysis by LRRC32 (GARP) expression; format: in vivo, human; conditions: for OS or disease control rate, Atezolizumab vs docetaxel: patients with high GARP expression
# From the text: Mechanistically, PD-1 blockade works primarily by targeting the progenitor exhausted population of CD8^+ T cells in the TME (TCF-1 expressing, SlamF6 expressing, PD-1 intermediate to low expressing). These cells deliver the proliferative burst following treatment resulting in increased differentiation to the terminal exhausted population, which is responsible for tumor clearance. […] Thus, we hypothesized GARP expression can contribute to PD-1/L1 ICB resistance. To address this hypothesis, we first mined the POPLAR database which compared PD-L1 blockade Atezolizumab with chemotherapy (i.e., docetaxel) for the platinum resistant advanced NSCLC. In this multi-center international phase II trial, bulk RNAseq data from pre-treatment tumors were available for 86 patients enrolled primarily in the US sites. We divided these patients into GARP high and low expression group with median expression level of LRRC32 transcript as the cutoff. […] To further address this hypothesis, we tested the combination therapy of anti-GARP antibody huPIIO-1 and PD-1 blockade in murine Lewis Lung Carcinoma (LLC) and CMT-167 lung cancer models, both of which are considered immunologically cold tumors with resistance to single agent PD-1 ICB. To do so, the human GARP KI mice were challenged with LCC followed by treatment with 200 μg/mouse of Isotype, huPIIO-1, anti-PD-1 antibody, or a combination of huPIIO-1 and PD-1 every 3 days starting on day 8 post tumor challenge for a total of 4 injections.
# Baculovirus = Baculovirus (BV) ELISA for non-specific binding
# Protocol: Baculovirus (BV) ELISA was employed as a preliminary assay to evaluate antibody's potential nonspecific binding risk.
# In Baculovirus (BV) ELISA, the inventor used Rituxan Mab as reference. […] If a clone only has binding on BV, but not on 293 cells, it will be considered as having a low risk of non-specific binding.
# Methods—Baculovirus ELISA. Plates are coated with 50 μl of 1:500 diluted Baculovirus sample in PBS in each well. Plates are kept at 4° C. for overnight. The plates are washed with 300 μL of wash buffer ×3 and 200 μl blocking buffer (1% BSA) is added at RT for 60 min. Plates are washed with 300 μl of wash buffer ×3 and 100 μl of diluted Abs are added at different concentrations/well, followed by RT incubation for 1 hr. Plates are washed with 300 μl of wash buffer ×6 and 100 μl of 1:5000 HRP conjugated second Ab in PBS is added followed by RT incubation for 1 hr. The plates are washed with 300 μl of wash buffer ×6. Developing buffer is added and the plate is read.
# [3] = patients with low GARP expression
compound,measurement,setting,value
"O=P1(N(CCCl)CCCl)NCCCO1 (stereo not drawn) [Cy, cyclophosphamide]",tumor control,B16-F1 melanomas; Cy alone,failed to control tumors
CCCCCCCCc1ccc(CCC(N)(CO)CO)cc1 [FTY720],effect of FTY720 on anti-tumor efficacy of PIIO-1 and T cell infiltration,[1],abrogated the anti-tumor efficacy of PIIO-1 and effectively blocked T cell infiltration
CC(=O)Oc1ccccc1C(=O)O [aspirin],anti-tumor effect,B16-F1 melanomas,no anti-tumor effects
same,"antigen-specific T cells in blood, ILNs and spleens",B16-F1 melanomas,sustained at higher numbers
same,efficacy and relapse-free survival,B16-F1 melanomas,highly effective against B16-F1 with relapse-free survival of most mice beyond 3 months
COC(=O)[C@H](c1ccccc1Cl)N1CCc2sccc2C1 [clopidogrel],anti-tumor effect,B16-F1 melanomas,no anti-tumor effects
same,"antigen-specific T cells in blood, ILNs and spleens",B16-F1 melanomas,sustained at higher numbers
same,efficacy and relapse-free survival,B16-F1 melanomas,highly effective against B16-F1 with relapse-free survival of most mice beyond 3 months
CC(=O)O[C@@]12CO[C@@H]1C[C@H](O)[C@@]1(C)C(=O)[C@H](O)C3=C(C)[C@@H](OC(=O)[C@H](O)[C@@H](NC(=O)OC(C)(C)C)c4ccccc4)C[C@@](O)([C@@H](OC(=O)c4ccccc4)[C@H]21)C3(C)C [docetaxel],"OS or disease control rate, Atezolizumab vs docetaxel",[2],did not demonstrate any difference
same,disease control rate,[2]; [3],9.5%
Atezolizumab: PD-L1 blockade,"OS or disease control rate, Atezolizumab vs docetaxel",[2],did not demonstrate any difference
same,disease control rate,[2]; [3],68.2%
same,"overall survival HR, Atezolizumab vs docetaxel","[2]; patients with low GARP expression, p=0.086",1.89
Rituxan: Rituxan Mab used as reference in BV ELISA [reference compound],"BV ELISA with purified IgG, raw BV binding data",Baculovirus; Ab. Conc. 0.15625 ug/ml,12.1
same,"BV ELISA with purified IgG, raw BV binding data",Baculovirus; Ab. Conc. 0.3125 ug/ml,13.7
same,"BV ELISA with purified IgG, raw BV binding data",Baculovirus; Ab. Conc. 0.625 ug/ml,13.7
same,"BV ELISA with purified IgG, raw BV binding data",Baculovirus; Ab. Conc. 1.25 ug/ml,13.0
same,"BV ELISA with purified IgG, raw BV binding data",Baculovirus; Ab. Conc. 2.5 ug/ml,17.0
same,"BV ELISA with purified IgG, raw BV binding data",Baculovirus; Ab. Conc. 5 ug/ml,22.7
same,"BV ELISA with purified IgG, raw BV binding data",Baculovirus; Ab. Conc. 10 ug/ml,66.0
same,"BV ELISA with purified IgG, raw BV binding data",Baculovirus; Ab. Conc. 20 ug/ml,98.8
